Assay results from publication PMC11407620, “Repurposing auranofin and meclofenamic acid as energy-metabolism inhibitors and anti-cancer drugs” (PLOS ONE, 2024).
Like-named read-outs stand apart in the source and are kept apart here.

How the values were obtained:
HeLa cells = assay: OxPhos flux (oligomycin-sensitive respiration) in intact cells; format: cell-based, human; details: 24 h
Method: (§1) For oxidative phosphorylation (OxPhos) flux, cells (2–5 mg protein/mL) were incubated at 37°C in air saturated KR medium plus 5 mM glucose. To distinguish the oxygen consumption associated to OxPhos, the cells were incubated with 5 μM oligomycin (Sigma-Aldrich, MO, USA), a potent, specific, and permeable inhibitor of the mitochondrial ATP synthase. The net OxPhos rate was determined by using a Clark type electrode, as previously described and by using a high-resolution respirometer (Oroboros Instruments, Innsbruck, Austria) at 37°C. The contribution of OxPhos and glycolysis to the cellular ATP supply was determined, respectively, from the net OxPhos rate (oligomycin-sensitive respiration) multiplied by the ATP/O or P»/O2 ratio that corresponds to 2.5 or 5, and from the rate of lactate production, assuming a stoichiometry of 1 mol of ATP produced per 1 mol of lactate produced.

MDA-MB-231 cells = assay: as above; format: cell-based, human; details: 24 h
Method: as §1

Breast MDA-MB-231 cells = assay: Cell proliferation, 24 h drug exposure; format: cell-based, human; details: for IC50: Breast MDA-MB-231, 24 h, read-out: IC50 for proliferation cell rate; for TI ratio (3T3/ cancer cells): IC50 3T3 / IC50 MDA-MB-231; for TI ratio (H9C2/cancer cells): IC50 H9C2 / IC50 MDA-MB-231
Method: (§2) All metastatic (breast MDA-MB231, MDA-MB468, cervix HeLa, prostate PC3, colorectal HCT116, COLO205, glioblastoma U373), low-metastatic (breast MCF-7) cancer and non-cancer (fibroblast 3T3, cardiomyocytes H9C2) cell lines (American Type Culture Collection, Rockville, MD, USA) used in this study were cultured in Petri dishes in 20 mL of Dulbecco’s Modified Eagle’s Medium (DMEM, Sigma, MO, USA) supplemented with 10% fetal bovine serum (Biowest, Mexico) and 10,000 U penicillin/streptomycin (Sigma-Aldrich, MO, USA). […] For growth and maintenance, cells were incubated in 5% CO2/95% air at 37°C and kept until 80–90% of confluence was reached. Then, cells were harvested, washed by centrifugation and resuspended in Krebs-Ringer buffer (KR, 125 mM NaCl, 5 mM KCl, 25 mM Hepes, 1 mM MgCl2, 1 mM KH2PO4, 1.4 mM CaCl2, pH 7.4) for further use. For experimentation, cancer cells (3–5 x 10^6 cells) were cultured in DMEM (with 25 mM glucose) for 24 h in the absence of drugs. Afterwards, old-medium was replaced with fresh DMEM medium (with 25 mM glucose) in the absence (control, non-treated cells) or in the presence of logarithmic concentrations of Aur and MA for 24 h more, under the same culture conditions described above. Viability of cultured cells was determined by the trypan blue exclusion assay. The protein concentration was determined by the Lowry method.
(§3) For cell proliferation in the presence of drugs, cancer cells (20 x 10^3 cells/well) were grown in 96-well plates containing DMEM (Sigma-Aldrich) plus 10% bovine fetal serum for 24 h. Afterwards, Aur or MA (0.01, 0.1, 10 and 100 μM) were added to the cell cultures and incubated for additional 24 h. The effect of these drugs on cell proliferation was determined in 96-well plates by the MTT (3-[4,5-dimethyl-thiazol-2-yl]-2,5-diphenyltetrazolium bromide) assay. The viability of cancer cells was > 95% after treatment with drugs.

Colorectal HCT116 cells = assay: Cell proliferation, 24 h drug exposure; format: cell-based, human; details: for IC50: Colorectal HCT116, 24 h, read-out: IC50 for proliferation cell rate; for TI ratio (3T3/ cancer cells): IC50 3T3 / IC50 HCT-116; for TI ratio (H9C2/cancer cells): IC50 H9C2 / IC50 HCT-116
Method: as §2, §3

Breast MCF-7 cells = assay: Cell proliferation, 24 h drug exposure; format: cell-based, human; details: for IC50: Breast MCF-7 (low metastatic), 24 h, read-out: IC50 for proliferation cell rate; for TI ratio (3T3/ cancer cells): IC50 3T3 / IC50 MCF-7; for TI ratio (H9C2/cancer cells): IC50 H9C2 / IC50 MCF-7
Method: as §2, §3

Prostate PC3 cells = assay: Cell proliferation, 24 h drug exposure; format: cell-based, human; details: for IC50: Prostate PC3, 24 h, read-out: IC50 for proliferation cell rate; for TI ratio (3T3/ cancer cells): IC50 3T3 / IC50 PC3; for TI ratio (H9C2/cancer cells): IC50 H9C2 / IC50 PC3
Method: as §2, §3

[1] = tested on: AS-30D hepatoma mitochondria; assay: Oxygen consumption of isolated mitochondria; format: biochemical, rat; design: Net State 3 oxygen consumption rate: unit not given here; details: for Net State 3 oxygen consumption rate / Pseudo State 4 oxygen consumption rate / RC (State 3/ State 4) / State 3 oxygen consumption rate / State 4 oxygen consumption rate / Net State 3 (State 3 –pseudoState 4) oxygen consumption rate / RC (State 3/ State 4), respiratory control: Hepatoma mitochondria
Method: AS-30D hepatocarcinoma cells were propagated in the peritoneal cavity of 200–250 g weight female Wistar rats by intra-peritoneal inoculation of 3 mL of a cellular suspension containing approximately 4 × 10^8 cells/mL [36]. After 5–6 days, the rats were sacrificed by cervical dislocation and AS-30D ascites liquid was extracted from peritoneal area with a sterile syringe and collected in 50 mL-plastic tubes. The hepatoma cells were harvested by centrifugation and washed once by centrifugation in KR buffer. For mitochondria isolation from AS-30D hepatoma, cells were permeabilized with digitonin (Sigma Aldrich, CA, USA) at 10–40 μg/mg cellular protein concentration.
Respiration of AS-30D, liver and heart mitochondria (1 mg protein/mL) was assayed oxygraphically with a Clark-type O2 electrode in KME (120 mM KCl, 20 mM Mops, 1 mM EGTA) buffer pH 7.2 plus 2 mM KH2PO4, and different oxidizable substrates (as indicated in Results). For state 3 respiration, 600 nmol ADP were added. Mitochondria were incubated at 37°C with Aur and MA for 30–60 s before substrates were added. At the end of each respiratory measurement, dithionite was added to get the chemical zero oxygen signal.
Isolated mitochondria (1mg protein/mL) were incubated in KME buffer (120 mM KCl, 20 mM MOPS, 1 mM EGTA) pH 7.20 plus 2 mM KH2PO4 and the indicated oxidizable substrates. For state 3 (ADP-stimulated) respiration, 300-600 nmol ADP were added. RC, respiratory control; n=3. To get the maximal reduction of molecular oxygen (zero oxygen concentration), sodium dithionite (Na2O4S2) was added at the end of each measurement.

[2] = 5 mM Glutamate/0.1 mM Malate, 5 μM MA
[3] = 5 mM Glutamate/0.1 mM Malate, 10 μM MA
[4] = 5 mM Glutamate/0.1 mM Malate, 10 μM Aur
[5] = 5 mM Glutamate/0.1 mM Malate, 25 μM Aur
[6] = 5 mM Glutamate/0.1 mM Malate, 50 μM Aur
[7] = 5 mM Glutamate/0.1 mM Malate, 100 μM Aur
[8] = Succinate 0.5 mM + Rotenone 2 µM, 10 µM Aur
[9] = Succinate 0.5 mM + Rotenone 2 µM, 25 µM Aur
[10] = Succinate 0.5 mM + Rotenone 2 µM, 50 µM Aur
[11] = Succinate 0.5 mM + Rotenone 2 µM, 100 µM Aur

## Cc1ccc(Cl)c(Nc2ccccc2C(=O)O)c1Cl [MA, Meclofenamic acid]
HeLa cells; +MA 6 μM
  OxPhos flux: 1.1 ± 0.3 nmol O2 min^-1 mg protein^-1
MDA-MB-231 cells; +MA 50 μM
  OxPhos flux: 3.1 ± 2 nmol O2 min^-1 mg protein^-1
Breast MDA-MB-231 cells; Homo sapiens
  IC50: 51 ± 5 µM
Breast MDA-MB-231 cells
  TI ratio (3T3/ cancer cells): 2
  TI ratio (H9C2/cancer cells): 2
Colorectal HCT116 cells; Homo sapiens, HCT-116
  IC50: > 100 µM
Colorectal HCT116 cells
  TI ratio (3T3/ cancer cells): 1
  TI ratio (H9C2/cancer cells): 1
Breast MCF-7 cells; Homo sapiens, MCF7
  IC50: > 100 µM
Breast MCF-7 cells
  TI ratio (3T3/ cancer cells): 1
  TI ratio (H9C2/cancer cells): 1
Prostate PC3 cells; Homo sapiens, PC-3
  IC50: 6 ± 3 µM
Prostate PC3 cells
  TI ratio (3T3/ cancer cells): 17
  TI ratio (H9C2/cancer cells): 17
[1]; [2]
  Net State 3 oxygen consumption rate: 26 ± 13
  Pseudo State 4 oxygen consumption rate: 19 ± 4 (3)
  RC (State 3/ State 4): 1 (3)
  State 3 oxygen consumption rate: 45 ± 10 (3)
  State 4 oxygen consumption rate: 45 ± 10 (3)
[1]; [3]
  Net State 3 oxygen consumption rate: 0
  RC (State 3/ State 4): 1 (3)
  State 3 oxygen consumption rate: 36 ± 7 (3)
  State 4 oxygen consumption rate: 36 ± 7 (3)
[1]; 5 mM Glutamate/0.1 mM Malate, 10 μM MA, in nmol O2/min/mg protein
  Pseudo State 4 oxygen consumption rate: 45 ± 15 (3)

## CC(=O)OC[C@H]1O[C@@H]([S-])[C@H](OC(C)=O)[C@@H](OC(C)=O)[C@@H]1OC(C)=O.CCP(CC)CC.[Au+] [Aur, [1-(thio-κS)-β-D-glucopyranose-2,3,4,6-tetraacetyl] (triethylphosphine)-gold]
HeLa cells; +Aur 1.7 μM
  OxPhos flux: 2.6 ± 0.5 nmol O2 min^-1 mg protein^-1
MDA-MB-231 cells; +Aur 0.8 μM
  OxPhos flux: 2.5 ± 0.5 nmol O2 min^-1 mg protein^-1
Breast MDA-MB-231 cells
  IC50: 0.8 ± 0.2 µM
  TI ratio (3T3/ cancer cells): 52
  TI ratio (H9C2/cancer cells): 97
Colorectal HCT116 cells
  IC50: 3 ± 1 µM
  TI ratio (3T3/ cancer cells): 14
  TI ratio (H9C2/cancer cells): 26
Breast MCF-7 cells
  IC50: 5 ± 0.6 µM
  TI ratio (3T3/ cancer cells): 8
  TI ratio (H9C2/cancer cells): 15
Prostate PC3 cells
  TI ratio (3T3/ cancer cells): 6
  TI ratio (H9C2/cancer cells): 12
  IC50: 6.5 ± 3.5 µM
[1]; [4]
  Net State 3 (State 3 –pseudoState 4) oxygen consumption rate: 91.5 ± 8 nmol O2 min^-1 mg protein^-1
  Pseudo State 4 oxygen consumption rate: 33.5 ± 2 nmol O2 min^-1 mg protein^-1
  RC (State 3/ State 4), respiratory control: 2.8 ± 0.5
  State 3 oxygen consumption rate: 125 ± 9 nmol O2 min^-1 mg protein^-1
  State 4 oxygen consumption rate: 44 ± 6 nmol O2 min^-1 mg protein^-1
[1]; [5]
  Net State 3 (State 3 –pseudoState 4) oxygen consumption rate: 78 ± 29 nmol O2 min^-1 mg protein^-1
  Pseudo State 4 oxygen consumption rate: 37 ± 5 nmol O2 min^-1 mg protein^-1
  RC (State 3/ State 4), respiratory control: 2.6 ± 0.5
  State 3 oxygen consumption rate: 114± 31 nmol O2 min^-1 mg protein^-1
  State 4 oxygen consumption rate: 43 ± 3 nmol O2 min^-1 mg protein^-1
[1]; [6]
  Net State 3 (State 3 –pseudoState 4) oxygen consumption rate: 80 ± 39 nmol O2 min^-1 mg protein^-1
  Pseudo State 4 oxygen consumption rate: 52.5 ± 11 nmol O2 min^-1 mg protein^-1
  RC (State 3/ State 4), respiratory control: 2.2 ± 0.5
  State 3 oxygen consumption rate: 133± 46 nmol O2 min^-1 mg protein^-1
  State 4 oxygen consumption rate: 74 ± 28 nmol O2 min^-1 mg protein^-1
[1]; [7]
  Net State 3 (State 3 –pseudoState 4) oxygen consumption rate: 68 ± 41 nmol O2 min^-1 mg protein^-1
  Pseudo State 4 oxygen consumption rate: 67 ± 21.5 nmol O2 min^-1 mg protein^-1
  RC (State 3/ State 4), respiratory control: 1.5 ± 0.4
  State 3 oxygen consumption rate: 125 ± 61 nmol O2 min^-1 mg protein^-1
  State 4 oxygen consumption rate: 79 ± 30 nmol O2 min^-1 mg protein^-1
[1]; [8]
  Net State 3 oxygen consumption rate: 63 ± 13
  Pseudo State 4 oxygen consumption rate: 80 ± 10
  RC (State 3/ State 4): 1.9 ± 0.5
  State 3 oxygen consumption rate: 143 ± 18
  State 4 oxygen consumption rate: 73 ± 7.5
[1]; [9]
  Net State 3 oxygen consumption rate: 56.5 ± 21
  Pseudo State 4 oxygen consumption rate: 90 ± 31
  RC (State 3/ State 4): 1.7 ± 0.1
  State 3 oxygen consumption rate: 147± 23
  State 4 oxygen consumption rate: 84 ± 15
[1]; [10]
  Net State 3 oxygen consumption rate: 58.3 ± 63
  Pseudo State 4 oxygen consumption rate: 83 ± 23
  RC (State 3/ State 4): 1.9 ± 0.3
  State 3 oxygen consumption rate: 141.5± 65
  State 4 oxygen consumption rate: 70 ± 28
[1]; [11]
  Net State 3 oxygen consumption rate: 26 ± 46
  Pseudo State 4 oxygen consumption rate: 82 ± 34
  RC (State 3/ State 4): 1.8 ± 0.4
  State 3 oxygen consumption rate: 104 ± 24
  State 4 oxygen consumption rate: 56.5 ± 7
[1]; hepatoma mitochondria, GM
  increase of state 4 respiration rates (times): 2.3–2.4 times
